Assay results taken from publication PMC7934941, “Pharmacological chaperone action in humanized mouse models of MC4R-linked obesity” (JCI Insight, 2021).

Tests used:
WT-hMC4R = target: T1, WT-hMC4R (Homo sapiens, UniProt P32245); assay: Melanocortin agonist cAMP production, WT receptor; type: cell-based; details: % of Emax of untreated WT-hMC4R upon 1 μM NDP-α-MSH
T1 construct: expressed in transfected cells
Description: (§1) Data are the means ± SEM of 3 independent experiments.
(§2) Cells were kept on ice for 5 minutes before proceeding to cAMP measurement. […] For all assays, plates were then put at –80°C at least 90 minutes and thawed at RT on Heidolph Titramax 100 shaker at speed 1050 rpm. Cell lysates were then transferred to 384-well plates, lysed, and incubated with cAMP labeled with the dye d2 and anti-cAMP M antibody labeled with Cryptate (cAMP dynamic-2 kit, cisbio) according to the manufacturer’s protocol. Reading of the homogeneous time-resolved fluorescence signal was performed on an Artemis time-resolved fluorescence resonance energy transfer plate reader (Cosmo Bio USA).

[1] = test system: hMC4R-KI, loxTB MC4R-null and nontransgenic mice; assay: Acute icv melanocortin agonist sensitivity, nocturnal food intake; type: in vivo, mouse; details: homozygous loxTB MC4R-null mice
Description: (A–C) Immunohistochemical labeling of MC4R-positive neurons. […] Inset in A: higher power magnification of boxed areas containing GFP immune reactive neurons (brown cytoplasmic reaction product). Arrows in the center and right insets indicate GFP-positive neurons. Scale bars: 100 μm (A), 50 μm (A, inset), […] (B) and 10 μm (C). […] Food intake was measured 4 hours postadministration in dark phase and reported in percentage.
Food consumption was then assessed between ZT10 and ZT15 (3 hours after lights off). Food consumption was then normalized relative to the basal food consumption measured the day before for each mouse (% food intake vs. basal) and is expressed as means ± SEM.
The guide cannulas were secured with screws and cranioplastic cement (Dentsply Canada). To prevent clogging and to reduce the potential for brain infection, sterile obturators (PlasticsOne) were inserted into the guide cannulas. Appropriate cannula placement was functionally verified before experiments using the dipsogenic effects of angiotensin 2 injections (5 ng) as positive control, 5 days after surgery.
The day prior to agonist sensitivity assay, basal food consumption was measured individually between Zeitgeber time 10 (ZT10) (10 hours after lights on) and ZT15 (3 hours after lights off). […] Food consumption was then assessed between ZT10 and ZT15. […]

R165W-hMC4R = target: T2, R165W-hMC4R (Homo sapiens, UniProt P32245, R165W); assay: Melanocortin agonist cAMP production, mutant receptor; type: cell-based
T2 construct: expressed in transfected cells
Description: as §1, §2

[2] = target: mouse melanocortin type 4 receptor (mouse) (UniProt P56450); details: scale: pEC50
[3] = target: human melanocortin type 4 receptor (WT) (human) (UniProt P32245); details: scale: pEC50
human melanocortin type 4 receptor (WT) (human), sequence (P32245 whole entry): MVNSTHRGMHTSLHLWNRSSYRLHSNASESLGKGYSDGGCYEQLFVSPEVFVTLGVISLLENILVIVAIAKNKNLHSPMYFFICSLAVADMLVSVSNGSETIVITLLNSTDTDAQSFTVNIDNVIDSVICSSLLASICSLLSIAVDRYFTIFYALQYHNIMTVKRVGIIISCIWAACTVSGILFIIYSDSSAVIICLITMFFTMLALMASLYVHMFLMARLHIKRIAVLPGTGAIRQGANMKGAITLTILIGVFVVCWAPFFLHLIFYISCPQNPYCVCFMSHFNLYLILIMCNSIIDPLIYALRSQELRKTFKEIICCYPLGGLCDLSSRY

T1 sequence (P32245 whole entry): as above
mouse melanocortin type 4 receptor (mouse), sequence (P56450 whole entry): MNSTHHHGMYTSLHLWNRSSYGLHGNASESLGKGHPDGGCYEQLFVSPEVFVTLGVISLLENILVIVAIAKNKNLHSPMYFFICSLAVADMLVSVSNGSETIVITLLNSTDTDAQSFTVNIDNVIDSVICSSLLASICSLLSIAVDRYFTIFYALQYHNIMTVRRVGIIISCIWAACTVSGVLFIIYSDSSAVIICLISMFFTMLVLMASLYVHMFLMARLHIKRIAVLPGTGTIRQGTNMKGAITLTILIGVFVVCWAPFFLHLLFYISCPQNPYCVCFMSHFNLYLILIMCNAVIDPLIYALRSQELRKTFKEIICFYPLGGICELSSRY
T2 sequence (P32245 whole entry R165W): as the sequence (P32245 whole entry) above, with R165W counted along it

| Molecule | Emax (WT-hMC4R; WT-hMC4R after 10 μM UM0130866 for 15 hours, washed) [%] | Emax (WT-hMC4R; WT-hMC4R, untreated) [%] | food intake response (ZT10-ZT15) [1] | Emax (R165W-hMC4R) [%] | potency (pEC50) of α-MSH to activate Gs, BRET-based biosensor directly monitoring Gs activation [2] | potency (pEC50) of α-MSH to activate Gs, BRET-based biosensor directly monitoring Gs activation [3] |
| --- | --- | --- | --- | --- | --- | --- |
| CSCC[C@H](NC(=O)[C@H](CCCNC(=N)N)NC(=O)[C@H](Cc1ccc(O)cc1)NC(=O)[C@@H]1CCCN1C(=O)CNC(=O)[C@H](CCC(=O)O)NC(=O)[C@H](CC(=O)O)NC(=O)[C@H](CCCCN)NC(=O)[C@H](CCCCN)NC(=O)[C@H](CCC(=O)O)NC(=O)[C@H](C)N)C(=O)N[C@@H](CCC(=O)O)C(=O)N[C@@H](Cc1c[nH]cn1)C(=O)N[C@@H](Cc1ccccc1)C(=O)N[C@@H](CCCNC(=N)N)C(=O)N[C@@H](Cc1c[nH]c2ccccc12)C(=O)NCC(=O)N[C@@H](CO)C(=O)N1CCC[C@H]1C(=O)N1CCC[C@H]1C(=O)N[C@@H](CCCCN)C(=O)N[C@@H](CC(=O)O)C(=O)O [β-MSH] | 92.7 ± 15.8 | 112 ± 2.55 | absence of anorexic response | 115 ± 43.5 |  |  |
| α–melanocyte-stimulating hormone (peptide) |  |  |  |  | 8.64 | 7.48 |
